Assay results as given in patent US20240083903A1, “ARYL ETHER COMPOUNDS AS TEAD MODULATORS” (Merck Sharp& Dohme LLC, priority 2021, published 2024).

system: TEAD Reporter-MCF7 cell line; test: YAP/TEAD cellular activity assay: inhibition of TEAD-Luc activity in TEAD Reporter-MCF7 cell line; assay type: cell-based, human; conditions: Homo sapiens, MCF7, 24 h, TEAD Reporter-MCF7 cells, 24 hours incubation with compound, luciferase readout
In short: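 MCF7 cells stably carrying a TEAD-responsive firefly luciferase reporter were seeded at 10,000 cells/well, grown 20-24 h, then exposed to compounds for 24 h at 37° C. Luciferase read by ONE-Glo EX luminescence; percent inhibition and EC50 derived.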

| SMILES | EC50 [nM] |
| --- | --- |
| CNS(=O)(=O)c1ccc(Oc2ccc(C(C)=O)cc2)c(-c2cn3c(n2)CCC3)c1 [1-50, 4-(4-acetylphenoxy)-3-(6,7-dihydro-5H-pyrrolo[1,2-a]imidazol-2-yl)-N-methylbenzene-1-sulfonamide] | 416 |
| CNS(=O)(=O)c1ccc(Oc2ccc(F)cc2)c(-c2cnn3c2OCC3)c1 [1-46, 3-(2,3-dihydropyrazolo[5,1-b]oxazol-7-yl)-4-(4-fluorophenoxy)-N-methylbenzenesulfonamide] | 1860 |
| CNS(=O)(=O)c1ccc(Oc2ccc(C(F)(F)F)cc2)c(-c2cn3cc(C)ccc3n2)c1 [1-34, N-methyl-3-(6-methylimidazo[1,2-a]pyridin-2-yl)-4-[4-(trifluoromethyl)phenoxy]benzene-1-sulfonamide] | 88.5 |
| CNS(=O)(=O)c1ccc(Oc2ccc(C(F)(F)F)cc2)c(-c2nc3c(s2)CNC3)c1 [1-14, 3-(5,6-dihydro-4H-pyrrolo[3,4-d] [1,3]thiazol-2-yl)-N-methyl-4-[4-(trifluoromethyl)phenoxy]benzene-1-sulfonamide] | 2640 |
| CNS(=O)(=O)c1ccc(Oc2ccc(C(F)(F)F)cc2)c(-c2cn3ccc(C)cc3n2)c1 [1-31, N-methyl-3-(7-methylimidazo[1,2-a]pyridin-2-yl)-4-[4-(trifluoromethyl)phenoxy]benzene-1-sulfonamide] | 40.6 |

Results, then the compound that gave them:

| EC50 [nM] | SMILES |
| --- | --- |
| 356 | CNS(=O)(=O)c1ccc(Oc2ccc(C(F)F)cc2)c(-c2cnn3c2OCC3)c1 [2-33, 4-[4-(difluoromethyl)phenoxy]-3-(2,3-dihydropyrazolo[5,1-b] [1,3]oxazol-7-yl)-N-methylbenzene-1-sulfonamide] |
| 5.2 | CNS(=O)(=O)c1ccc(Oc2ccc(Cl)c(C(F)(F)F)c2)c(-c2cn3c(n2)CCC3)c1 [4-16, 4-[4-chloro-3-(trifluoromethyl)phenoxy]-3-(6,7-dihydro-5H-pyrrolo[1,2-a]imidazol-2-yl)-N-methylbenzene-1-sulfonamide] |
| 52.6 | CNS(=O)(=O)c1ccc(O[C@H]2CC[C@H](C(F)(F)F)CC2)c(-c2cn3c(n2)CCC3)c1 [4-1, 3-(6,7-Dihydro-5H-pyrrolo[1,2-a]imidazol-2-yl)-N-methyl-4-(((1r,4r)-4-(trifluoromethyl)cyclohexyl)oxy)benzenesulfonamide] |
| 3180 | CNS(=O)(=O)c1ccc(Oc2ccc(C(F)(F)F)cc2)c(-c2cccc3c2OCC(=O)N3)c1 [2-26, N-methyl-3-(3-oxo-3,4-dihydro-2H-1,4-benzoxazin-8-yl)-4-[4-(trifluoromethyl)phenoxy]benzene-1-sulfonamide] |
| 32.3 | CNS(=O)(=O)c1ccc(Oc2ccc3c(c2)CCC3)c(-c2cn3c(n2)CCC3)c1 [4-4, 4-[(2,3-dihydro-1H-inden-5-yl)oxy]-3-(6,7-dihydro-5H-pyrrolo[1,2-a]imidazol-2-yl)-N-methylbenzene-1-sulfonamide] |
| 1.3 | CNS(=O)(=O)c1cnc(Oc2ccc(C(F)(F)F)cc2)c(-c2cc3n(n2)CCC3)c1 [8-3, 5-(5,6-dihydro-4H-pyrrolo[1,2-b]pyrazol-2-yl)-N-methyl-6-[4-(trifluoromethyl)phenoxy]pyridine-3-sulfonamide] |
| 4780 | CNS(=O)(=O)c1ccc(Oc2ccc(C(F)(F)F)cc2)c(-c2cccc3cnccc23)c1 [2-20, 3-(isoquinolin-5-yl)-N-methyl-4-[4-(trifluoromethyl)phenoxy]benzene-1-sulfonamide] |
| 15.3 | CNS(=O)(=O)c1ccc(Oc2ccc(C)cc2F)c(-c2cn3c(n2)CCC3)c1 [4-19, 3-(6,7-dihydro-5H-pyrrolo[1,2-a]imidazol-2-yl)-4-(2-fluoro-4-methylphenoxy)-N-methylbenzene-1-sulfonamide] |
| 508 | CNS(=O)(=O)c1ccc(Oc2ccc(CC(F)(F)F)cc2)c(-c2cnn3c2CCC3)c1 [3-6, 3-(5,6-dihydro-4H-pyrrolo[1,2-b]pyrazol-3-yl)-N-methyl-4-[4-(2,2,2-trifluoroethyl)phenoxy]benzene-1-sulfonamide] |
| 23.8 | CNS(=O)(=O)c1ccc(Oc2ccc(C)cc2)c(-c2cn3c(n2)CCC3)c1 [4-7, 3-(6,7-dihydro-5H-pyrrolo [1,2-a]imidazol-2-yl)-N-methyl-4-(4-methylphenoxy)benzene-1-sulfonamide] |
| 17.8 | O=S(=O)(NC1CC1)c1ccc(Oc2ccc(C(F)(F)F)cc2)c(-c2cn3c(n2)CCC3)c1 [7-3, N-cyclopropyl-3-(6,7-dihydro-5H-pyrrolo[1,2-a]imidazol-2-yl)-4-(4-(trifluoromethyl)phenoxy)benzenesulfonamide] |

same assay, conditions: TEAD Reporter-MCF7 cells, 24 hours incubation with compound, luciferase readout

| EC50 [nM] | SMILES |
| --- | --- |
| 28.4 | CNS(=O)(=O)c1ccc(Oc2ccc(C(F)(F)F)cc2)c(-c2cn3c(n2)OC(C)C3)c1 (single isomer, unassigned) [1-38, (R)- or (S)-N-methyl-3-(2-methyl-2,3-dihydroimidazo[2,1-b] [1,3]oxazol-6-yl)-4-[4-(trifluoromethyl)phenoxy]benzene-1-sulfonamide] |
| 25.3 | CNS(=O)(=O)c1ccc(Oc2ccc(F)cc2F)c(-c2cn3c(n2)CCC3)c1 [4-22, 4-(2,4-difluorophenoxy)-3-(6,7-dihydro-5H-pyrrolo[1,2-a]imidazol-2-yl)-N-methylbenzene-1-sulfonamide] |
| 33.6 | CNS(=O)(=O)c1ccc(Oc2ccc(C(F)(F)F)cc2)c(-c2cn3c(n2)C(C)CC3)c1 (single isomer, unassigned) [1-44, (S)- or (R)-N-methyl-3-(7-methyl-6,7-dihydro-5H-pyrrolo[1,2-a]imidazol-2-yl)-4-[4-(trifluoromethyl)phenoxy]benzene-1-sulfonamide] |
